The values that follow are results of earlier work, collected in patent US20110206661A1, “TRIMETHOXYPHENYL INHIBITORS OF TYROSINE KINASE” (AUSPEX PHARMACEUTICALS, INC., priority 2010, published 2011).

Molecules are shown by their SMILES.

The conditions of this data set: human plasma after oral administration of fostamatinib.

For the compound `COc1cc(Nc2ncc(F)c(Nc3ccc4c(n3)N(COP(=O)(O)O)C(=O)C(C)(C)O4)n2)cc(OC)c1OC` [Fostamatinib, 6-[[5-fluoro-2-[(3,4,5-trimethoxyphenyl)amino]-4-pyrimidinyl]amino]-2,2-dimethyl-4-[(phosphonooxy)methyl]-2H-pyrido[3,2-b]-1,4-oxazin-3(4H)-one], the “drug-related compound observed in human plasma” value is given as “only small amounts”.
